Patent US12297203B2, “Pyrrolopyrimidine ITK inhibitors” (ACLARIS THERAPEUTICS, INC., priority 2018, dated 2025)

Experiments:
[1] = test system: JAK1/3 phosphorylation of its substrate, STAT5, at Y694; assay: JAK1/3 target modulation assay (IL-2 stimulated STAT5 Y694 phosphorylation in PBMC); type: cell-based; settings: Homo sapiens, PBMC, Primary human peripheral blood mononuclear cells, IL-2 25 ng/mL; read-out: IL2-STAT5 Inh. IC50
Outline: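 Human PBMCs preincubated with compound for 1 h at 37 °C, then stimulated with IL-2 (25 ng/mL final) for 5 min. Cells were lysed and phospho-STAT5a,b (Y694) measured by MSD electrochemiluminescence immunoassay, single-plex or multiplex with total STAT5a,b.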

[2] = target: JAK3 (Homo sapiens (Human), UniProt P52333); assay: JAK3 enzyme activity assay (Caliper mobility shift); type: biochemical; settings: ATP at Km level; read-out: JAK3 Inh. IC50
Outline: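 Caliper mobility-shift assay with 2.5 nM JAK3, […] and […] (Km level) in 20 mM HEPES pH 7.5, 10 mM MgCl2, 0.01% BSA, 0.0005% Tween-20, 2% DMSO. 11-point dose-response from […] 0.34 nM; IC50 by 4-parameter logistic fit of product/substrate signal.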

[3] = test system: ITK phosphorylation of its substrate, PLCγ1, at Y783; assay: ITK target modulation assay (PLCγ1 Y783 phosphorylation, anti-CD3 stimulated Jurkat T cells); type: cell-based; settings: Homo sapiens, Jurkat, anti-CD3 Dynabeads stimulation, read-out: PLC-γ Inh. IC50
Outline: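 Jurkat cells (400,000/well) were preincubated with compound for 1 h at 37 °C (0.1% DMSO final), then stimulated with anti-CD3 Dynabeads (bead:cell 2:1). Hypotonic lysates were dot-blotted and probed for phospho-PLCγ1 Y783 and total PLCγ1, with quantification by dual-channel infrared imaging.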

[4] = target: ITK (Homo sapiens (Human), UniProt Q08881); assay: ITK inhibitor binding potency (LanthaScreen competitive binding assay); settings: read-out: ITK Inh. IC50
Outline: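 TR-FRET tracer displacement: 10 nM GST-ITK, 2 nM Eu-anti-GST, 50 nM tracer-236 in HEPES pH 7.5, MgCl2, 2% DMSO; 11 points, 20 µM–0.34 nM. Run with or without 2 h compound–ITK preincubation before tracer; IC50 by 4-parameter fit of emission ratio.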

Chain of JAK3 (P52333 781-1124): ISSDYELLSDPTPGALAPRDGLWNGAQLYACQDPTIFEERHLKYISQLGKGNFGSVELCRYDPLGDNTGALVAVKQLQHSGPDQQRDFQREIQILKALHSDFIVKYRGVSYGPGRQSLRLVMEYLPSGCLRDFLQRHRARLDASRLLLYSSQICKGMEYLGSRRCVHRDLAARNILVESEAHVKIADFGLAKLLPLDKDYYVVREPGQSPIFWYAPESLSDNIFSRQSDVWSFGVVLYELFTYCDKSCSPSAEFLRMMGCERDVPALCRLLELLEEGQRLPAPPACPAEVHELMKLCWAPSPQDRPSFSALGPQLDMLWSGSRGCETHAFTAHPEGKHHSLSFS
Chain of ITK (Q08881 whole entry): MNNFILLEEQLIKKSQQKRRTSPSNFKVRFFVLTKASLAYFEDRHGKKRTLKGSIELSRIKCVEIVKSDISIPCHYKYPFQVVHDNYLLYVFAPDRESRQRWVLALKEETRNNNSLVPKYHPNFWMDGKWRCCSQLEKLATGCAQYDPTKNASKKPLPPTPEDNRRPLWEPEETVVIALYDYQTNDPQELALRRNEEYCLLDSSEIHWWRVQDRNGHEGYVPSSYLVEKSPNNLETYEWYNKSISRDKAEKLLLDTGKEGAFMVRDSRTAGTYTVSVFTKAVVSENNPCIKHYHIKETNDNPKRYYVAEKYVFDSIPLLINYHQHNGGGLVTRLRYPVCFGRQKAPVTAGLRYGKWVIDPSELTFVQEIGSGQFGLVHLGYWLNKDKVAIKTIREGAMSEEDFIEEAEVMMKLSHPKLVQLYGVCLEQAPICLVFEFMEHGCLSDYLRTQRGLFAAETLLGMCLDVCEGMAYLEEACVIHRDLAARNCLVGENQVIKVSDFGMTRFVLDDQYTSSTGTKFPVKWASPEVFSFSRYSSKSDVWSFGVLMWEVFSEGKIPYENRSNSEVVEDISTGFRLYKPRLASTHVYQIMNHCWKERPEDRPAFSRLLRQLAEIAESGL

Row | Compound | IC50 [1] | IC50 [2] | IC50 [3] | IC50 [4]
1 | C=CC(=O)N1C[C@H](Nc2ncnc3[nH]cc(C(=O)OCCC)c23)CC[C@@H]1C [Example 3, propyl 4-(((3R,6S)-1-acryloyl-6-methylpiperidin-3-yl)amino)-7H-pyrrolo[2,3-d]pyrimidine-5-carboxylate] | 100 to 1000 nM | ≤ 10 nM | ≤ 100 nM | ≤ 10 nM
2 | C=CC(=O)N1CCC[C@@H](Nc2ncnc3[nH]cc(C(=O)C4CC4)c23)C1 [Example 5, (R)-1-(3-((5-(cyclopropanecarbonyl)-7H-pyrrolo[2,3-d]pyrimidin-4-yl)amino)piperidin-1-yl)prop-2-en-1-one] | > 1000 nM | 10 to 100 nM | 100 to 1000 nM | ≤ 10 nM
3 | C=CC(=O)N1CCC[C@@H](Nc2ncnc3[nH]cc(C(=O)C4CCCC4)c23)C1 [Example 6, (R)-1-(3-((5-(cyclopentanecarbonyl)-7H-pyrrolo[2,3-d]pyrimidin-4-yl)amino)piperidin-1-yl)prop-2-en-1-one] | > 1000 nM | 10 to 100 nM | 100 to 1000 nM | ≤ 10 nM
4 | C=CC(=O)N1CC(Nc2ncnc3[nH]cc(C(=O)C4CC4)c23)C1 [Example 7, 1-(3-((5-(cyclopropanecarbonyl)-7H-pyrrolo[2,3-d]pyrimidin-4-yl)amino)azetidin-1-yl)prop-2-en-1-one] | > 1000 nM | > 100 nM | > 1000 nM | 10 to 100 nM
5 | C=CC(=O)N1CCC[C@@H](Nc2ccnc3[nH]cc(C(=O)C4CC4)c23)C1 [Example 9, (R)-1-(3-((3-(cyclopropanecarbonyl)-1H-pyrrolo[2,3-b]pyridin-4-yl)amino)piperidin-1-yl)prop-2-en-1-one] | 100 to 1000 nM | ≤ 10 nM | 100 to 1000 nM | ≤ 10 nM
6 | C=CC(=O)N1CCC(Nc2ccnc3[nH]cc(C(=O)C4CC4)c23)CC1 [Example 10, 1-(4-((3-(cyclopropanecarbonyl)-1H-pyrrolo[2,3-b]pyridin-4-yl)amino)piperidin-1-yl)prop-2-en-1-one] | > 1000 nM | > 100 nM | > 1000 nM | > 100 nM
7 | C=CC(=O)N1CCC[C@@H](Nc2ccnc3[nH]cc(C(=O)C4CCCC4)c23)C1 [Example 13, (R)-1-(3-((3-(cyclopentanecarbonyl)-1H-pyrrolo[2,3-b]pyridin-4-yl)amino)piperidin-1-yl)prop-2-en-1-one] | 100 to 1000 nM | 10 to 100 nM | 100 to 1000 nM | ≤ 10 nM
8 | C=CC(=O)N1CC[C@@H](Nc2ccnc3[nH]cc(C(=O)C4CC4)c23)C1 [Example 15, (R)-1-(3-((3-(cyclopropanecarbonyl)-1H-pyrrolo[2,3-b]pyridin-4-yl)amino)pyrrolidin-1-yl)prop-2-en-1-one] | > 1000 nM | 10 to 100 nM | 100 to 1000 nM | ≤ 10 nM
9 | C=CC(=O)N1CCC[C@@H](Nc2ncnc3[nH]cc(CC4CC4)c23)C1 [Example 18, (R)-1-(3-((5-(cyclopropylmethyl)-7H-pyrrolo[2,3-d]pyrimidin-4-yl)amino)piperidin-1-yl)prop-2-en-1-one] | 100 to 1000 nM | ≤ 10 nM | ≤ 100 nM | ≤ 10 nM
10 | C=CC(=O)N1CCC[C@@H](Nc2ccnc3[nH]cc(CC4CC4)c23)C1 [Example 19, (R)-1-(3-((3-(cyclopropylmethyl)-1H-pyrrolo[2,3-b]pyridin-4-yl)amino)piperidin-1-yl)prop-2-en-1-one] | 100 to 1000 nM | ≤ 10 nM | ≤ 100 nM | ≤ 10 nM
11 | C=CC(=O)N1CCC[C@@H](Nc2ncnc3[nH]cc(C(C)C4CC4)c23)C1 (stereo partly drawn) [Example 21, 1-((3R)-3-((5-(1-cyclopropylethyl)-7H-pyrrolo[2,3-d]pyrimidin-4-yl)amino)piperidin-1-yl)prop-2-en-1-one] | > 1000 nM | > 100 nM | > 1000 nM | > 100 nM
12 | C=CC(=O)N1CCC[C@@H](Nc2ncnc3[nH]cc(CC4CCCC4)c23)C1 [Example 22, (R)-1-(3-((5-(cyclopentylmethyl)-7H-pyrrolo[2,3-d]pyrimidin-4-yl)amino)piperidin-1-yl)prop-2-en-1-one] | 100 to 1000 nM | ≤ 10 nM | 100 to 1000 nM | ≤ 10 nM
13 | C=CC(=O)N1CCC[C@@H](Nc2ncnc3[nH]cc(C4(C)CC4)c23)C1 [Example 23, (R)-1-(3-((5-(1-methylcyclopropyl)-7H-pyrrolo[2,3-d]pyrimidin-4-yl)amino)piperidin-1-yl)prop-2-en-1-one] | 100 to 1000 nM | ≤ 10 nM | 100 to 1000 nM | ≤ 10 nM
14 | C=CC(=O)N1C[C@H](Nc2ncnc3[nH]cc(CC4CC4)c23)CC[C@@H]1C [Example 24, 1-((2S,5R)-5-((5-(cyclopropylmethyl)-7H-pyrrolo[2,3-d]pyrimidin-4-yl)amino)-2-methylpiperidin-1-yl)prop-2-en-1-one] | 100 to 1000 nM | ≤ 10 nM | ≤ 100 nM | ≤ 10 nM
15 | C=CC(=O)N1CCC[C@@H](Nc2ncnc3[nH]cc(C4CC4(F)F)c23)C1 (stereo partly drawn) [Example 27, 1-((3R)-3-((5-(2,2-difluorocyclopropyl)-7H-pyrrolo[2,3-d]pyrimidin-4-yl)amino)piperidin-1-yl)prop-2-en-1-one] | 100 to 1000 nM | ≤ 10 nM | ≤ 100 nM | ≤ 10 nM
16 | C=CC(=O)N1CCC[C@@H](Nc2ncnc3[nH]cc(C4CCCC4)c23)C1 [Example 28, (R)-1-(3-((5-cyclopentyl-7H-pyrrolo[2,3-d]pyrimidin-4-yl)amino)piperidin-1-yl)prop-2-en-1-one] | 100 to 1000 nM | ≤ 10 nM | ≤ 100 nM | ≤ 10 nM
17 | C=CC(=O)N1CCC[C@@H](Nc2ncnc3[nH]cc(C4=CCCC4)c23)C1 [Example 29, (R)-1-(3-((5-(cyclopent-1-en-1-yl)-7H-pyrrolo[2,3-d]pyrimidin-4-yl)amino)piperidin-1-yl)prop-2-en-1-one] | 100 to 1000 nM | ≤ 10 nM | 100 to 1000 nM | ≤ 10 nM

Further lines, results first:

Row | IC50 [1] | IC50 [2] | IC50 [3] | IC50 [4] | Compound
18 | 100 to 1000 nM | ≤ 10 nM | 100 to 1000 nM | ≤ 10 nM | C=CC(=O)N1C[C@H](Nc2ncnc3[nH]cc(C(=O)OC(C)C)c23)CC[C@@H]1C [Example 4, isopropyl 4-(((3R,6S)-1-acryloyl-6-methylpiperidin-3-yl)amino)-7H-pyrrolo[2,3-d]pyrimidine-5-carboxylate]
19 | > 1000 nM | 10 to 100 nM | > 1000 nM | 10 to 100 nM | C=CC(=O)N1CCC[C@@H](Nc2ccnc3[nH]cc(C(=O)CCOC)c23)C1 [Example 8, (R)-1-(3-((3-(3-methoxypropanoyl)-1H-pyrrolo[2,3-b]pyridin-4-yl)amino)piperidin-1-yl)prop-2-en-1-one]
20 | 100 to 1000 nM | ≤ 10 nM | 100 to 1000 nM | ≤ 10 nM | C=CC(=O)N1CCC[C@@H](Nc2ccnc3[nH]cc(C(=O)C4(C)CC4)c23)C1 [Example 14, (R)-1-(3-((3-(1-methylcyclopropane-1-carbonyl)-1H-pyrrolo[2,3-b]pyridin-4-yl)amino)piperidin-1-yl)prop-2-en-1-one]
21 | 100 to 1000 nM | ≤ 10 nM | > 1000 nM | 10 to 100 nM | C=CC(=O)N1C[C@H](Nc2ncnc3[nH]cc(C(=O)OCC(C)C)c23)CC[C@@H]1C [Example 16, isobutyl 4-(((3R,6S)-1-acryloyl-6-methylpiperidin-3-yl)amino)-7H-pyrrolo[2,3-d]pyrimidine-5-carboxylate]
22 | 100 to 1000 nM | ≤ 10 nM | ≤ 100 nM | ≤ 10 nM | C=CC(=O)N1C[C@H](Nc2ncnc3[nH]cc(C(=O)C4CCC4)c23)CC[C@@H]1C [Example 17, 1-((2S,5R)-5-((5-(cyclobutanecarbonyl)-7H-pyrrolo[2,3-d]pyrimidin-4-yl)amino)-2-methylpiperidin-1-yl)prop-2-en-1-one]
23 | 100 to 1000 nM | ≤ 10 nM | 100 to 1000 nM | ≤ 10 nM | C=CC(=O)N1CCC[C@@H](Nc2ncnc3[nH]cc(CC4CCC4)c23)C1 [Example 20, (R)-1-(3-((5-(cyclobutylmethyl)-7H-pyrrolo[2,3-d]pyrimidin-4-yl)amino)piperidin-1-yl)prop-2-en-1-one]
24 | ≤ 100 nM | ≤ 10 nM | ≤ 100 nM | ≤ 10 nM | C=CC(=O)N1C[C@H](Nc2ncnc3[nH]cc(C4CCCC4)c23)CC[C@@H]1C [Example 30, 1-((2S,5R)-5-((5-cyclopentyl-7H-pyrrolo[2,3-d]pyrimidin-4-yl)amino)-2-methylpiperidin-1-yl)prop-2-en-1-one]
25 | 100 to 1000 nM | ≤ 10 nM | 100 to 1000 nM | ≤ 10 nM | C=CC(=O)N1C[C@H](Nc2ncnc3[nH]cc(C(=O)OC(C)(C)C)c23)CC[C@@H]1C [Example 31, tert-butyl 4-(((3R,6S)-1-acryloyl-6-methylpiperidin-3-yl)amino)-7H-pyrrolo[2,3-d]pyrimidine-5-carboxylate]
